Patent US11331364B2, “Use for JNK inhibitor molecules for treatment of various diseases” (Xigen Inflammation Ltd., priority 2014, dated 2022)
Square brackets hold non-standard residues; d marks the D form. Peptide text beside a SMILES is read from it.

Experiments:
human whole blood = experiment: PHA-L-induced cytokine release in human whole blood, 3 days; type: cell-based; details: 1, 3, 10 μM, PHA-L 5 μg/mL
Method: FIG. 22 JNK inhibition and TNF-α release in human whole blood. The JNK inhibitor with SEQ ID NO: 172 was added at three different concentrations, namely 1, 3 and 10 μM 1 h before whole blood stimulation with PHA-L (5 μg/mL) for 3 days.
FIG. 23 JNK inhibition and IL-2 release in human whole blood. The JNK inhibitor with SEQ ID NO: 172 was added at three different concentrations, namely 1, 3 and 10 μM 1 h before whole blood stimulation with PHA-L (5 μg/mL) for 3 days.
Whole blood from human healthy volunteers was collected using a venipuncture connected to a pre-labeled vacuum tube containing sodium citrate. Tubes are gently mixed by inversion 7-8 times; and are then kept at RT until stimulation. 350 μl of RPMI+P/S were added into 1.2 ml-96-well plate. 10 times concentrated of SEQ ID NO: 172 was prepared in RPMI+P/S (50 μl per well). 50 μl was added into 1.2 ml-96 well plates. 50 μl of whole blood was then added in each well where either medium alone or JNK inhibitor has been previously added. Whole blood was incubated at 37° C., 5% CO2 for 60 min. 50 μl/well of ligands diluted in RPMI+P/S was prepared, corresponding to the final dilution 10 times concentrated. After 60 min of incubation, ligand was added; wells were then mixed by pipetting up and down the blood. […] Cytokine were then measured using standard Elisa kits. Results are expressed as pg/ml of supernatant of the measured cytokine.

[1] = Stability (half-life) in human serum, UPLC-MS; details: human serum (10 and 50% in PBS; FIG. 5: 50%), 0.1 mM peptide
Method: The experiment was performed as described by Tugyi et al. (Proc Natl Acad Sci USA, 2005, 413-418). The remaining intact peptide was quantified by UPLC-MS.

[2] = test system: K5.STAT3C mouse model of psoriasis; experiment: K5.STAT3C mouse model of psoriasis, tape stripping, acanthosis; type: in vivo; details: 5 mg/kg IP QD D0-D5
Method: To this end, two independent experiments are performed, each with at least 15 mice per experiment (5 mice per group). In each experiment, BK5.STAT3C heterozygous transgenic mice (Tg(KRT5-Stat3*A661C*N663C)1Jdg, henceforth referred to as K5.STAT3C mice) were randomly allocated to the following experimental groups 1 and 2, and wild-type littermates were allocated to group 3:
On Day 0, psoriasis is induced by tape striping (12-18 times) the back of the mouse after depilation. To this end, mice were anaesthetized using a Ketamine/Xylazine cocktail (100 mg/kg and 10 mg/kg respectively) intraperitoneally, shaved, depilated and skin injury was applied by 15 gentle strokes of tape stripping. Mice were treated with either vehicle (saline) or XG-104 right before anaesthesia on day 0 and once a day thereafter for 5 days. […]
Animals are weighed once on day 0. […] After termination of the study at day 5, approximately 1 cm^2 skin biopsy (lesions) is collected on the back of each mouse, embedded with Optimal Cutting Temperature (OCT)-containing moulds, frozen on dry ice, sectioned in 6 μm slices using a cryotome and stained with H&E. Epidermal thickness (acanthosis) is histologically measured blinded by two independent experimenters. One slide per mouse and 10 different zones of the sections are measured.

hJNK2 = hJNK2 (Homo sapiens, UniProt P45984); experiment: hJNK2 | IC50; details: read-out: hJNK2 | IC50
Summary of the method: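 JNK inhibitors tested as fusion proteins of a JNK-inhibitory (poly)peptide and a transporter sequence; IC50 reported in the nM range with SEM and number of experiments.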

hJNK2, sequence (P45984 whole entry, looked up, the tested form may be a part): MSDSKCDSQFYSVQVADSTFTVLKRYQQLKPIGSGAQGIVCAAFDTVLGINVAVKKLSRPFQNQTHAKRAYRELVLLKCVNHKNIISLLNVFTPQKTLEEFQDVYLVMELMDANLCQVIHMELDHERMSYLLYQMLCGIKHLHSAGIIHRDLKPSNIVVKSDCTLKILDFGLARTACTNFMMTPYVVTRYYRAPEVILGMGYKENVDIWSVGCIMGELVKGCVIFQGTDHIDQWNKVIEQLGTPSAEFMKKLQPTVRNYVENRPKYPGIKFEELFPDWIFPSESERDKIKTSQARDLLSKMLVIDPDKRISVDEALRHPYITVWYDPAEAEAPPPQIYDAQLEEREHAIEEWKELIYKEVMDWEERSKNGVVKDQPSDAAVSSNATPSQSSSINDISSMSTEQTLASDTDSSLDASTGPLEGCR

CC(C)C[C@H](NC(=O)[C@H](CC(N)=O)NC(=O)[C@H](CC(C)C)NC(=O)[C@@H](NC(=O)[C@@H](C)NC(=O)[C@@H]1CCCN1C(=O)[C@H](CCCNC(=N)N)NC(=O)[C@@H](CCCCN)NC(=O)[C@@H]1CCCN1C(=O)[C@H](CCCNC(=N)N)NC(=O)[C@@H](CCCNC(=N)N)NC(=O)[C@H](CCCNC(=N)N)NC(=O)[C@H](CCCNC(=N)N)NC(=O)[C@H](CCC(N)=O)NC(=O)[C@@H](CCCNC(=N)N)NC(=O)[C@H](CCCNC(=N)N)NC(=O)[C@H](CCCCN)NC(=O)[C@H](CCCCN)NC(=O)[C@H](N)CCCNC(=N)N)[C@@H](C)O)C(=O)N[C@H](Cc1ccccc1)C(N)=O [SEQ ID NO: 172, rKKRrQRRrRPkRPaTLNLf] (H-[dR]KKR[dR]QRR[dR]RP[dK]RP[dA]TLNL[dF]-NH2; N-terminus assumed)
PHA-L-induced IL-2 release (human whole blood): did reduce the PHA-L-induced IL-2 release in a dose-dependent manner
PHA-L-induced TNF-α release (human whole blood): did reduce the PHA-L-induced TNF-α release in a dose-dependent manner
time until completely degraded [1]: 14 days
acanthosis (epidermal thickness) [2]: significantly reduced the acanthosis
parakeratosis [2]: absence of any parakeratosis
IC50 (hJNK2): 54.7 nM
